Measurements published in patent US10273229B2, “N-substituted 4-aminoquinazoline derivatives and methods of use” (priority 2014, dated 2019).

Experiments:
[1] = target: T1, CYP3A4 (Homo sapiens, UniProt P08684); conditions: in words; for CYP3A4 inhibitor potency after preincubation with the test compound, compared with lapatinib: time dependent arm
[2] = target: T2, human ErbB2 (Homo sapiens, UniProt P04626); assay: ErbB2 kinase assay, FRET peptide substrate (Example 3); type: biochemical; conditions: ErbB2 or EGFR (either kinase); in words
Protocol: Kinase assays were performed using standard protocols known to those skilled in the art. In brief, kinase, peptide substrate labeled with both coumarin (donor fluorophore) and fluorescein (acceptor fluorophore), ATP, and test compound are incubated together in a kinase reaction buffer. Typically, the reaction was stopped by development reagent (protease) with certain dilution factor after 2 hours. The plate was analyzed in Perkin Elmer Envision by FRET mode. The high ratio of coumarin/fluorescein represents 0% phosphorylation rate while low ratio of coumarin/fluorescein represents 100% phosphorylation rate.

[3] = target: T1, CYP3A4
[4] = system: BT-474 cells; assay: Cytotoxicity against BT-474 cells, CellTiter 96 (Example 4); type: cell-based, human; conditions: in words
Protocol: (§1) All of the test compounds were kept between 4° C. to 8° C. in solid form or as solution in DMSO. The cell lines BT-474 and NCI-N87 were obtained from the ATCC. The cell lines were maintained in liquid nitrogen. Cell lines were prepared by thawing a 1 mL vial of the cell line and splitting it into two T-75 flasks with 10 mL of the appropriate media. BT-474 and NCI-N87 both utilized RPMI 1640 with varying glucose content (1 g/L for BT-474 and 4.5 g/L for NCI-N87). The cell lines were trypsinized and split into two T-150 flasks each time the cell lines reached 70-90% confluency. When there were at least two confluent T-150 flasks of cell lines available, cultures were trypsinized and the cells enumerated using a hemocytometer and added to a 96-well microtiter plate at 1.5×10^5 cells/mL. The 96-well plates were then incubated at 37° C. with 5% CO2 for 24 hours to allow enough time for the cells to adhere to the wells. […] Lapatinib and media without the test compounds were used as controls. All 96-well plates were incubated at 37° C. with 5% CO2 for 3 days with plates containing BT-474 and for 6 days with plates containing NCI-N87. […] After recovery, cell viability was determined using the CellTiter 96® Aqueous One Solution Cell Proliferation Assay kit (Promega). The optical density (OD) was read using a SPECTRAMAX® M5 Microplate Reader (Molecular Devices) at 490 nm. […]

[5] = system: NCI-N87 cells; assay: Cytotoxicity against NCI-N87 cells, CellTiter 96 (Example 4); type: cell-based; conditions: in words
Protocol: as §1

[6] = system: BT-474 cells; assay: Cytotoxicity against BT-474 cells at RBC, Cell Titer-Glo 2.0 (Example 6); type: cell-based, human; conditions: in words
Protocol: All of the test compounds were kept between 4° C. to 8° C. in solid form or as solution in DMSO. The cell line BT-474 was obtained from the ATCC. Test compounds were dissolved in DMSO (10 mM stock). Cell Titer-Glo® 2.0 Luminescent cell viability assay reagent was obtained from Promega. BT474 human breast cancer cell line was grown in Hybri-care medium supplemented with 1.5 g/L sodium bicarbonate and 10% FBS. 100 μg/ml penicillin and 100 μg/ml streptomycin were added to all culture media. Cultures were maintained at 37° C. in a humidified atmosphere of 5% CO2 and 95% air. Test compounds in DMSO were added in a source plate. 25 nL of test compounds was delivered from the source plate to each well of the 384-well cell culture plates by Echo 550. 25 μl of culture medium containing 1000 cells for each cell line was added to the wells of the cell culture plates. […] The contents were mixed on an orbital shaker for 2 minutes and incubated at room temperature for 10 minutes to stabilize luminescent signal Luminescence was recorded by Envision 2104 Multilabel Reader (Perkin Elmer). The number of viable cells in culture was determined based on quantization of the ATP present in each culture well. The IC50 values were calculated and the IC50 curves were plotted using the GraphPad Prism 4 program based on a sigmoidal dose-response equation.

[7] = target: T3, EGFR (Homo sapiens, UniProt P00533); assay: EGFR kinase assay at RBC, 33P-ATP filter binding (Example 5); type: biochemical; conditions: in words
Protocol: (§2) The synthesis and biochemical testing of these compounds was completed using alternate CROs as a control for characterizing compounds. Kinase assays were performed at RBC using standard protocols known to those skilled in the art. In brief, kinase, any required cofactors, substrate in DMSO, and kinase reaction mixture (by acoustic technology; Echo 550; nanoliter range) were incubated for 20 minutes at room temperature. 33P-ATP was added to initiate the reaction, which was incubated for 2 hours at room temperature.

[8] = target: T2, human ErbB2; assay: ErbB2 kinase assay at RBC, 33P-ATP filter binding (Example 5); type: biochemical; conditions: in words
Protocol: The synthesis and biochemical testing of these compounds was completed using alternate CROs as a control for characterizing compounds.
as §2, with “Kinase” for “The synthesis and biochemical testing of these compounds was completed using alternate CROs as a control for characterizing compounds. Kinase”

[9] = target: Syk (Homo sapiens, UniProt P43405); assay: Syk kinase inhibition (Table 1)
[10] = target: ErbB4 (Homo sapiens, UniProt Q15303); assay: ErbB4 kinase inhibition (Table 1); type: biochemical
[11] = target: T3, EGFR; assay: EGFR kinase inhibition (Table 1)

T2 sequence (P04626 23-1255): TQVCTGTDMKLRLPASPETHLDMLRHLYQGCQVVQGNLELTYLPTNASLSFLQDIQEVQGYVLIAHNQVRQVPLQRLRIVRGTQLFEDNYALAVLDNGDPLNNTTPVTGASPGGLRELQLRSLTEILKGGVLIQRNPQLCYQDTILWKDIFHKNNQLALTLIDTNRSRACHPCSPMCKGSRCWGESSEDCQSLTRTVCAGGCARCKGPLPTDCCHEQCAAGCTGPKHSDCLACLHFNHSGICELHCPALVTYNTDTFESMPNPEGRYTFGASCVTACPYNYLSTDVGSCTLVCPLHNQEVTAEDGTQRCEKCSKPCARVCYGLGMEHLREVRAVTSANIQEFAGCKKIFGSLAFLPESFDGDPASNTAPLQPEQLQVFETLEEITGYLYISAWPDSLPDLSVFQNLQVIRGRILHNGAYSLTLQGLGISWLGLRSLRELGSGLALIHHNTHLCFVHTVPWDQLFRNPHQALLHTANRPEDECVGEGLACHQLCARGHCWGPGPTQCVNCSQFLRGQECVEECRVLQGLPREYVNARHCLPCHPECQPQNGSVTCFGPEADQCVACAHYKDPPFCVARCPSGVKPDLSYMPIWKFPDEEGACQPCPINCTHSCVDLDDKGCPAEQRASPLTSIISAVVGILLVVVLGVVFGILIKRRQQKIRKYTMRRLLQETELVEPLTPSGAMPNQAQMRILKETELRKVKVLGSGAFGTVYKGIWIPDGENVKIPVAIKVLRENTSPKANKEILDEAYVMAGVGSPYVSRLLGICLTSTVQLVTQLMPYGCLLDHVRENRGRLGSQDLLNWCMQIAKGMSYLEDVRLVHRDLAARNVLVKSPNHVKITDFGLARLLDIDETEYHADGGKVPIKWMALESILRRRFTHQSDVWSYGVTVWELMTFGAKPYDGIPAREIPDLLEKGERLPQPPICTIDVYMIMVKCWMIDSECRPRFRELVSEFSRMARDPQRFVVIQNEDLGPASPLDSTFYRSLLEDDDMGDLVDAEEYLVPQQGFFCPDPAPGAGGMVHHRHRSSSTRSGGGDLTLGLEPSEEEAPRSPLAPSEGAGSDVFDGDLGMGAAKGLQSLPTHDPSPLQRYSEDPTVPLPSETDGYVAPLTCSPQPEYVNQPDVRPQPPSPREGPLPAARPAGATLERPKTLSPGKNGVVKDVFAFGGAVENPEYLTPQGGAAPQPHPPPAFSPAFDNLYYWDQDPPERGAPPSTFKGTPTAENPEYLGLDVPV
T1 sequence (P08684 whole entry): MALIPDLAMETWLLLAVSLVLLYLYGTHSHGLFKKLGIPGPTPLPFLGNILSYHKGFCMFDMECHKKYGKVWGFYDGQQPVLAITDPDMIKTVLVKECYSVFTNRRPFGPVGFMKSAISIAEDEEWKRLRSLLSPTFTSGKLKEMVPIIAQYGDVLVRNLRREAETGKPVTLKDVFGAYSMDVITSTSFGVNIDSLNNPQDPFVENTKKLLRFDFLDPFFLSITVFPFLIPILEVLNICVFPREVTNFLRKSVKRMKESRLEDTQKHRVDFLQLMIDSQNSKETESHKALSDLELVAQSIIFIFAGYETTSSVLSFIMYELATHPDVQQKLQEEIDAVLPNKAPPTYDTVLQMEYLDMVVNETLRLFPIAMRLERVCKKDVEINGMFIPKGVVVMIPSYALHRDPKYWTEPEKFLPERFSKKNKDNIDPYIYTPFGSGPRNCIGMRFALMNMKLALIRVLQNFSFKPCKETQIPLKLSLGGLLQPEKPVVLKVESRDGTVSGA
T3 sequence (P00533 25-1210): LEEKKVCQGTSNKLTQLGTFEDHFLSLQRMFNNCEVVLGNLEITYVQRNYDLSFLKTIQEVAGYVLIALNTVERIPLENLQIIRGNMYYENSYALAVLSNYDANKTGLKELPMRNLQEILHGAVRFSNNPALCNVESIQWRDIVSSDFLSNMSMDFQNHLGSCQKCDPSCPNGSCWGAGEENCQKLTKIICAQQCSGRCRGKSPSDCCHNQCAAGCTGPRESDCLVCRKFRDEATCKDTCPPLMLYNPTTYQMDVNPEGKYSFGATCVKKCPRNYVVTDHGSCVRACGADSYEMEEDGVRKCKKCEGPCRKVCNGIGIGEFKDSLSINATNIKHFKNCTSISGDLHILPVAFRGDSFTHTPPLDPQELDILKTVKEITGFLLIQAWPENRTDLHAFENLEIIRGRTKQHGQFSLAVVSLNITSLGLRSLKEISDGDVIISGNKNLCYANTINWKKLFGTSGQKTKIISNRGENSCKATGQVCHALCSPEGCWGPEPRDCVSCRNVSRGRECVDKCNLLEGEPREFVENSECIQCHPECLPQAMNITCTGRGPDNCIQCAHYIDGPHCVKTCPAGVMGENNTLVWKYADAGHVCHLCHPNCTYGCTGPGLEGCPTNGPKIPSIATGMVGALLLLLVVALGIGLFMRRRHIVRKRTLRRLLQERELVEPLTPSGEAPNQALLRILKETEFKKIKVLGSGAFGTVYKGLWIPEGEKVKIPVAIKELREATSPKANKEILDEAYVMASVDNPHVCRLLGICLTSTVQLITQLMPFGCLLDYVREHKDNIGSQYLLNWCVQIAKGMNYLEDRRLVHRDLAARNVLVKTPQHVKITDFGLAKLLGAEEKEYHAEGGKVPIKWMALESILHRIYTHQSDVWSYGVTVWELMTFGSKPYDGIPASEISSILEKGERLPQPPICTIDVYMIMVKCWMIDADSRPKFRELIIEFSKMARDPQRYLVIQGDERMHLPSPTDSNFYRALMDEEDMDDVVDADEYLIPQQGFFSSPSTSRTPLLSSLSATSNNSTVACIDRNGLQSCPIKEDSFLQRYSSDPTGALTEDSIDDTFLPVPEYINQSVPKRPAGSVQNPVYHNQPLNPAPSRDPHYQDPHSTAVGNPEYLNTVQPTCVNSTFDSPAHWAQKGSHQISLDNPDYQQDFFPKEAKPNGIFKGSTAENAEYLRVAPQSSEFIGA
Sequence of ErbB4 (Q15303 26-1308, species assumed): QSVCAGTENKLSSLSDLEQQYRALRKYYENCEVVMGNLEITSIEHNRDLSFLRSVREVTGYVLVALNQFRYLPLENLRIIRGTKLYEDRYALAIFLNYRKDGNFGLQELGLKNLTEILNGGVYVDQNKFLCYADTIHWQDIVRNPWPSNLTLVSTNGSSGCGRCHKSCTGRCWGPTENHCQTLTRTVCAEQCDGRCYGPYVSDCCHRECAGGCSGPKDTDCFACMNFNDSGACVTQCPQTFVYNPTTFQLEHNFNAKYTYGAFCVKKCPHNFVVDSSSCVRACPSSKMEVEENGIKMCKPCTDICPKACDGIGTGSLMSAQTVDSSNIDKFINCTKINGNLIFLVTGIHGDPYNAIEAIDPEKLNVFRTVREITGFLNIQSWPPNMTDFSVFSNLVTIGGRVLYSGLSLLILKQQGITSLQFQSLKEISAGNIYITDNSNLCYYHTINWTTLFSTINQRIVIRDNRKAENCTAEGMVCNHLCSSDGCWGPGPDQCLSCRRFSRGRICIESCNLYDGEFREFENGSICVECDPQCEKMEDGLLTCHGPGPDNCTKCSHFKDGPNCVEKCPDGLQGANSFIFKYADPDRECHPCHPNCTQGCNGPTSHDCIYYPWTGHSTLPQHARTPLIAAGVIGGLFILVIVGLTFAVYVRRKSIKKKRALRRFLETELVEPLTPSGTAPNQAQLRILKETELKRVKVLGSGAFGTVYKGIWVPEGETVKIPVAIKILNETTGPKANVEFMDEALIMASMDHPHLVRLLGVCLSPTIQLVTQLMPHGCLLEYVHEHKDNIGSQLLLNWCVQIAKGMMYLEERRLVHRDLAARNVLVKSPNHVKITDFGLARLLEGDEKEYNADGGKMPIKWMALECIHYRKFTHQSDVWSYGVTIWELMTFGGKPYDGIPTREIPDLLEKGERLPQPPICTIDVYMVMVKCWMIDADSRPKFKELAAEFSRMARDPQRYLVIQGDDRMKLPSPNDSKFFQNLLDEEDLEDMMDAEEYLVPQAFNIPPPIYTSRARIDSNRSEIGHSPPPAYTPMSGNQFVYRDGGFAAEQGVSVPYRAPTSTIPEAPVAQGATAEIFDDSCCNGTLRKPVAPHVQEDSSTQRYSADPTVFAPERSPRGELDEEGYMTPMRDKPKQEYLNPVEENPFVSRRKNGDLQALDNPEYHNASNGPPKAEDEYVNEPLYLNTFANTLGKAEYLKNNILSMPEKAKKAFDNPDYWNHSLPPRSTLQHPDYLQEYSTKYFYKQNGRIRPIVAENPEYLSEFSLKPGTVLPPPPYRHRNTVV

CN(C)C(=O)ON(CCS(C)(=O)=O)Cc1ccc(-c2ccc3ncnc(Nc4ccc(OCc5cccc(F)c5)c(Cl)c4)c3c2)o1 [Compound 4]
CYP3A4 inhibitor potency compared with lapatinib [1]: less potent
CYP3A4 inhibitor potency after preincubation with the test compound, compared with lapatinib [1]: less potent

CS(=O)(=O)CCN(Cc1ccc(-c2ccc3ncnc(Nc4ccc(OCc5cccc(F)c5)c(Cl)c4)c3c2)o1)C1COC1 [Compound 9]
CYP3A4 inhibitor potency after preincubation with the test compound, compared with lapatinib [1]: less potent
inhibition of ErbB2 or EGFR, potency compared with lapatinib [2]: better potency than lapatinib
Ratio IC50:TD*** [3]: +++
BT-474 IC50 compared with lapatinib [4]: lower than those observed for lapatinib
NCI-N87 IC50 compared with lapatinib [5]: lower than those observed for lapatinib
BT-474 IC50 compared with lapatinib [6]: lower IC50 than lapatinib

CS(=O)(=O)CCN(Cc1ccc(-c2ccc3ncnc(Nc4ccc(OCc5cccc(F)c5)c(Cl)c4)c3c2)o1)OC(N)=O [Compound 3]
CYP3A4 inhibitor potency compared with lapatinib [1]: less potent
CYP3A4 inhibitor potency after preincubation with the test compound, compared with lapatinib [1]: less potent

CS(=O)(=O)CCN(CC(=O)O)Cc1ccc(-c2ccc3ncnc(Nc4ccc(OCc5cccc(F)c5)c(Cl)c4)c3c2)o1 [Compound 6]
CYP3A4 inhibitor potency compared with lapatinib [1]: less potent
CYP3A4 inhibitor potency after preincubation with the test compound, compared with lapatinib [1]: less potent
inhibition of ErbB2 or EGFR, potency compared with lapatinib [2]: better potency than lapatinib
EGFR inhibition potency compared with lapatinib [7]: better potency than lapatinib
Ratio IC50:TD*** [3]: +++
ErbB2 inhibition potency compared with lapatinib [8]: better potency than lapatinib

CS(=O)(=O)CCN(Cc1ccc(-c2ccc3ncnc(Nc4ccc(OCc5cccc(F)c5)c(Cl)c4)c3c2)o1)S(C)(=O)=O [Compound 7]
CYP3A4 inhibitor potency compared with lapatinib [1]: less potent
CYP3A4 inhibitor potency after preincubation with the test compound, compared with lapatinib [1]: less potent
inhibition of ErbB2 or EGFR, potency compared with lapatinib [2]: better potency than lapatinib
Ratio IC50:TD*** [3]: ++
BT-474 IC50 compared with lapatinib [4]: lower than those observed for lapatinib
NCI-N87 IC50 compared with lapatinib [5]: lower than those observed for lapatinib

CS(=O)(=O)CCN(O)Cc1ccc(-c2ccc3ncnc(Nc4ccc(OCc5cccc(F)c5)c(Cl)c4)c3c2)o1 [Compound 2]
IC50 [9]: > 10 µM
IC50 [10]: 0.032 µM
IC50 [11]: 0.072 µM

COC(=O)ON(CCS(C)(=O)=O)Cc1ccc(-c2ccc3ncnc(Nc4ccc(OCc5cccc(F)c5)c(Cl)c4)c3c2)o1 [Compound 5]
inhibition of ErbB2 or EGFR, potency compared with lapatinib [2]: better potency than lapatinib
Ratio IC50:TD*** [3]: ++

CC(=O)N(CCS(C)(=O)=O)Cc1ccc(-c2ccc3ncnc(Nc4ccc(OCc5cccc(F)c5)c(Cl)c4)c3c2)o1 [Compound 8]
CYP3A4 inhibitor potency after preincubation with the test compound, compared with lapatinib [1]: less potent
inhibition of ErbB2 or EGFR, potency compared with lapatinib [2]: better potency than lapatinib

CS(=O)(=O)CCN(Cc1ccc(-c2ccc3ncnc(Nc4ccc(OCc5cccc(F)c5)c(Cl)c4)c3c2)o1)C1CCC1 [Compound 10]
CYP3A4 inhibitor potency compared with lapatinib [1]: less potent
time dependent shift of CYP3A4 inhibition compared with lapatinib [1]: possible exception
CYP3A4 inhibitor potency after preincubation with the test compound, compared with lapatinib [1]: less potent
inhibition of ErbB2 or EGFR, potency compared with lapatinib [2]: better potency than lapatinib
Ratio IC50:TD*** [3]: +
